Legend:
bedstraw = test: Test B pre/postemergence bedstraw; assay type: in vivo, Galium aparine
Method in brief: (§1)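 Test chemicals in a non-phytotoxic solvent mixture with surfactant were sprayed preemergence onto planted seeds and postemergence onto plants 2 to 18 cm tall (1- to 4-leaf stage). After twelve to sixteen days in a greenhouse, injury was visually rated against untreated controls from 0 (no effect) to 10 (complete control).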

blackgrass = test: Test B pre/postemergence blackgrass; assay type: in vivo, Alopecurus myosuroides
Method in brief: as §1

surinam grass = test: Test B pre/postemergence surinam grass; assay type: in vivo, Brachiaria decumbens
Method in brief: as §1

cocklebur = test: Test B pre/postemergence cocklebur; assay type: in vivo, Xanthium strumarium
Method in brief: as §1

corn = test: Test B pre/postemergence corn; assay type: in vivo, Zea mays
Method in brief: as §1

crabgrass = test: Test B pre/postemergence crabgrass; assay type: in vivo, Digitaria sanguinalis
Method in brief: as §1

giant foxtail = test: Test B pre/postemergence giant foxtail; assay type: in vivo, Setaria faberii
Method in brief: as §1

morningglory = test: Test B pre/postemergence morningglory; assay type: in vivo, Ipomoea hederacea
Method in brief: as §1

pigweed = test: Test B pre/postemergence pigweed; assay type: in vivo, Amaranthus retroflexus
Method in brief: as §1

rape = test: Test B pre/postemergence rape; assay type: in vivo, Brassica napus
Method in brief: as §1

soybean = test: Test B pre/postemergence soybean; assay type: in vivo, Glycine max
Method in brief: as §1

sugar beet = test: Test B pre/postemergence sugar beet; assay type: in vivo, Beta vulgaris
Method in brief: as §1

velvetleaf = test: Test B pre/postemergence velvetleaf; assay type: in vivo, Abutilon theophrasti
Method in brief: as §1

wheat = test: Test B pre/postemergence wheat; assay type: in vivo, Triticum aestivum
Method in brief: as §1

wild oat = test: Test B pre/postemergence wild oat; assay type: in vivo, Avena fatua
Method in brief: as §1

purple nutsedge = test: Test B pre/postemergence purple nutsedge; assay type: in vivo, Cyperus rotundus
Method in brief: as §1

[1] = Preemergence, Rate 62 g/ha, scale of 0 to 10 where 0 is no effect and 10 is complete control
[2] = Preemergence, Rate 125 g/ha, scale of 0 to 10 where 0 is no effect and 10 is complete control
[3] = Preemergence, Rate 250 g/ha, scale 0 to 10 (0 no effect, 10 complete control)
[4] = Preemergence, Rate 500 g/ha, scale of 0 to 10 where 0 is no effect and 10 is complete control
[5] = Postemergence, Rate 62 g/ha, scale 0 to 10, 0 is no effect, 10 is complete control
[6] = Postemergence, Rate 125 g/ha, scale of 0 to 10 where 0 is no effect and 10 is complete control
[7] = Postemergence, Rate 500 g/ha, scale 0 (no effect) to 10 (complete control)
[8] = Preemergence, Rate 250 g/ha, scale 0 (no effect) to 10 (complete control)
[9] = Rate 62 g/ha, Preemergence, scale 0 to 10
[10] = Rate 125 g/ha, Preemergence, scale 0 to 10 (0 no effect, 10 complete control)
[11] = Rate 250 g/ha, Postemergence, scale 0 to 10, 0 is no effect, 10 is complete control
[12] = Rate 500 g/ha, Preemergence, scale 0 to 10 (0 no effect, 10 complete control)

CC(C)N(C(=O)n1oc(=O)n(C(C)C(=S)N(C)C)c1=O)c1ccccc1 (stereo not shown) [Compound 704]
5: Plant response rating, B. signalgrass (surinam grass; [2]) | Crabgrass plant response rating (crabgrass; [1]) | Plant response rating, Redroot pigweed (pigweed; [2])
10: Plant response rating, Blackgrass (blackgrass; [3]) | Plant response rating, Blackgrass (blackgrass; [4])
0: Bedstraw plant response rating (bedstraw; [1]) | Plant response rating, Bedstraw (bedstraw; [2]) | Plant response rating, Bedstraw (bedstraw; [3]) | Cocklebur plant response rating (cocklebur; [1]) | Plant response rating, Cocklebur (cocklebur; [2]) | Plant response rating, Cocklebur (cocklebur; [3]) | Plant response rating, Cocklebur (cocklebur; [4]) | Corn plant response rating (corn; [1]) | Plant response rating, Corn (corn; [2]) | Plant response rating, Corn (corn; [3]) | Morningglory plant response rating (morningglory; [1]) | Plant response rating, Morningglory (morningglory; [2]) | Redroot pigweed plant response rating (pigweed; [1]) | Rape plant response rating (rape; [1]) | Plant response rating, Rape (rape; [2]) | Soybean plant response rating (soybean; [1]) | Plant response rating, Soybean (soybean; [2]) | Sugarbeets plant response rating (sugar beet; [1]) | Velvetleaf plant response rating (velvetleaf; [1]) | Plant response rating, Velvetleaf (velvetleaf; [2]) | Wheat plant response rating (wheat; [1]) | Plant response rating, Wheat (wheat; [2]) | Wild oats plant response rating (wild oat; [1]) | Plant response rating, Wild oats (wild oat; [2]) | Nutsedge plant response rating (purple nutsedge; [1]) | Plant response rating, Nutsedge (purple nutsedge; [2])
4: Giant foxtail plant response rating (giant foxtail; [1])
2: Blackgrass plant response rating (blackgrass; [1]) | B. signalgrass plant response rating (surinam grass; [1])
3: Plant response rating, Sugarbeets (sugar beet; [2])
9: Plant response rating, B. signalgrass (surinam grass; [4])
7: Plant response rating, Giant foxtail (giant foxtail; [2])
6: Plant response rating, Blackgrass (blackgrass; [2])
8: Plant response rating, B. signalgrass (surinam grass; [3]) | Plant response rating, Crabgrass (crabgrass; [2]) | Plant response rating, Crabgrass (crabgrass; [3])

CON=CC(C)n1c(=O)on(C(=O)N(c2ccccc2)C(C)C)c1=O (stereo not shown) [Compound 790]
5: Bedstraw plant response rating (bedstraw; [7]) | Blackgrass plant response rating (blackgrass; [6]) | Blackgrass plant response rating (blackgrass; [7]) | Blackgrass plant response rating (blackgrass; [11]) | Redroot pigweed plant response rating (pigweed; [6]) | Redroot pigweed plant response rating (pigweed; [7]) | Redroot pigweed plant response rating (pigweed; [11]) | Velvetleaf plant response rating (velvetleaf; [11]) | Wheat plant response rating (wheat; [7]) | Nutsedge plant response rating (purple nutsedge; [11])
lo: Giant foxtail plant response rating (giant foxtail; [8])
8: Blackgrass plant response rating (blackgrass; [9]) | B. signalgrass plant response rating (surinam grass; Rate 62 g/ha, Preemergence, scale 0 (no effect) to 10 (complete control)) | Corn plant response rating (corn; [8]) | Giant foxtail plant response rating (giant foxtail; [7]) | Giant foxtail plant response rating (giant foxtail; [11]) | Rape plant response rating (rape; [12])
9: Bedstraw plant response rating (bedstraw; [12]) | Blackgrass plant response rating (blackgrass; [8]) | Blackgrass plant response rating (blackgrass; [10]) | B. signalgrass plant response rating (surinam grass; [8]) | B. signalgrass plant response rating (surinam grass; [10]) | B. signalgrass plant response rating (surinam grass; [12]) | Corn plant response rating (corn; [12]) | Plant response rating, Crabgrass (crabgrass; [5]) | Crabgrass plant response rating (crabgrass; [7]) | Crabgrass plant response rating (crabgrass; [11]) | Plant response rating, Giant foxtail (giant foxtail; [5]) | Giant foxtail plant response rating (giant foxtail; [6]) | Wheat plant response rating (wheat; [12])
10: Blackgrass plant response rating (blackgrass; [12]) | Cocklebur plant response rating (cocklebur; [8]) | Cocklebur plant response rating (cocklebur; [12]) | Crabgrass plant response rating (crabgrass; [8]) | Crabgrass plant response rating (crabgrass; [9]) | Crabgrass plant response rating (crabgrass; [10]) | Crabgrass plant response rating (crabgrass; [12]) | Giant foxtail plant response rating (giant foxtail; [9]) | Giant foxtail plant response rating (giant foxtail; [10]) | Giant foxtail plant response rating (giant foxtail; [12]) | Morningglory plant response rating (morningglory; [7]) | Redroot pigweed plant response rating (pigweed; [12]) | Wild oats plant response rating (wild oat; [12])
3: Bedstraw plant response rating (bedstraw; [10]) | Rape plant response rating (rape; [7]) | Rape plant response rating (rape; [11]) | Wild oats plant response rating (wild oat; [7])
0: Plant response rating, Bedstraw (bedstraw; [5]) | Bedstraw plant response rating (bedstraw; [6]) | Bedstraw plant response rating (bedstraw; [9]) | Bedstraw plant response rating (bedstraw; [11]) | Plant response rating, Cocklebur (cocklebur; [5]) | Cocklebur plant response rating (cocklebur; [6]) | Cocklebur plant response rating (cocklebur; [7]) | Cocklebur plant response rating (cocklebur; [9]) | Cocklebur plant response rating (cocklebur; [10]) | Cocklebur plant response rating (cocklebur; [11]) | Plant response rating, Corn (corn; [5]) | Morningglory plant response rating (morningglory; [9]) | Morningglory plant response rating (morningglory; [10]) | Plant response rating, Redroot pigweed (pigweed; [5]) | Plant response rating, Rape (rape; [5]) | Rape plant response rating (rape; [6]) | Soybean plant response rating (soybean; [9]) | Soybean plant response rating (soybean; [10]) | Plant response rating, Sugarbeets (sugar beet; [5]) | Sugarbeets plant response rating (sugar beet; [11]) | Velvetleaf plant response rating (velvetleaf; [9]) | Wheat plant response rating (wheat; [9]) | Plant response rating, Wild oats (wild oat; [5]) | Wild oats plant response rating (wild oat; [9]) | Wild oats plant response rating (wild oat; [11]) | Plant response rating, Nutsedge (purple nutsedge; [5]) | Nutsedge plant response rating (purple nutsedge; [6]) | Nutsedge plant response rating (purple nutsedge; [9]) | Nutsedge plant response rating (purple nutsedge; [10]) | Nutsedge plant response rating (purple nutsedge; [12])
6: B. signalgrass plant response rating (surinam grass; [6]) | Redroot pigweed plant response rating (pigweed; [10]) | Wild oats plant response rating (wild oat; [10])
1: Sugarbeets plant response rating (sugar beet; [9])
7: Bedstraw plant response rating (bedstraw; [8]) | B. signalgrass plant response rating (surinam grass; [11]) | B. signalgrass plant response rating (surinam grass; Rate 500 g/ha, Postemergence, scale 0 to 10, 0 is no effect, 10 is complete control) | Corn plant response rating (corn; [10]) | Morningglory plant response rating (morningglory; [11]) | Morningglory plant response rating (morningglory; [12]) | Sugarbeets plant response rating (sugar beet; [7]) | Sugarbeets plant response rating (sugar beet; [12]) | Velvetleaf plant response rating (velvetleaf; [7]) | Velvetleaf plant response rating (velvetleaf; [12]) | Nutsedge plant response rating (purple nutsedge; [7])
4: Plant response rating, Blackgrass (blackgrass; [5]) | Corn plant response rating (corn; [7]) | Corn plant response rating (corn; [11]) | Morningglory plant response rating (morningglory; [6]) | Rape plant response rating (rape; [10]) | Soybean plant response rating (soybean; [7]) | Soybean plant response rating (soybean; [11]) | Plant response rating, Velvetleaf (velvetleaf; [5]) | Wheat plant response rating (wheat; [11])
2: Plant response rating, B. signalgrass (surinam grass; [5]) | Corn plant response rating (corn; [6]) | Corn plant response rating (corn; [9]) | Plant response rating, Morningglory (morningglory; [5]) | Redroot pigweed plant response rating (pigweed; [9]) | Rape plant response rating (rape; [9]) | Plant response rating, Soybean (soybean; [5]) | Soybean plant response rating (soybean; [12]) | Sugarbeets plant response rating (sugar beet; [10]) | Velvetleaf plant response rating (velvetleaf; [10]) | Plant response rating, Wheat (wheat; [5]) | Wheat plant response rating (wheat; [10])

— patent US6737383B1, “Herbicidal oxadiazolidines” (priority 1999, dated 2004)
